Source: patent publication US11648208B2, “Nano complex comprising a nano drug delivery matrix; and a ginseng extract or a ginsenoside isolated therefrom” (priority 2016, dated 2023)

Key:
[1] = Solubility for water (microscopic images, HPLC of supernatants); format: physicochemical
Text: High water solubility advantageously enhances pharmacokinetic properties such as bioavailability, membrane permeability, therapeutic activity, etc.

[2] = tested on: keratinocyte (HaCaT Skin); assay: Cytotoxicity by MTT assay on keratinocytes; conditions: up to a concentration of 15 μM
[3] = tested on: Escherichia coli [ATCC 10798]; assay: Antimicrobial activity, disk diffusion method on Muller-Hinton agar; format: cell-based; conditions: in mm
[4] = tested on: Salmonella enterica [ATCC 13076]; assay: as above; format: cell-based; conditions: in mm
[5] = tested on: Vibrio parahaemolyticus [ATCC 33844]; assay: as above; format: cell-based; conditions: in mm

CC(C)=CCC[C@](C)(O[C@@H]1O[C@H](CO)[C@@H](O)[C@H](O)[C@H]1O)[C@H]1CC[C@]2(C)[C@@H]1[C@H](O)C[C@@H]1[C@@]3(C)CC[C@H](O)C(C)(C)[C@@H]3CC[C@]12C [CK, ginsenoside Compound K]
solubility for water [1]: insoluble even at a low concentration

CC(C)=CCC[C@](C)(O)[C@H]1CC[C@]2(C)[C@@H]1[C@H](O)C[C@@H]1[C@@]3(C)CC[C@H](O[C@@H]4O[C@H](CO)[C@@H](O)[C@H](O)[C@H]4O)C(C)(C)[C@@H]3CC[C@]12C [Rh2, 20(S)-protopanaxdiol-3-O-β-D-glucopyranoside]
solubility for water [1]: insoluble even at a low concentration | cytotoxicity on keratinocyte cell line [2]: showed cytotoxicity

CN(C)[C@@H]1C(=O)C(C(N)=O)=C(O)[C@@]2(O)C(=O)C3=C(O)c4c(O)cccc4[C@@](C)(O)[C@H]3C[C@@H]12 [Tetracyclin, tetracycline]
Zone of inhibition [3]: 20 ± 0.1 | Zone of inhibition [4]: 30 ± 0.3 | Zone of inhibition [5]: 25 ± 0.6
